Laboratory results published in patent publication US10794932B2, “Biosensor for the detection of a biological target, and method for manufacturing the same” (The Governing Council of The University of Toronto, priority 2016, dated 2020).

Experiments:
Assay type in all cases: binding
TLR3 = target: T1, TLR3 (Mus musculus, UniProt Q99MB1); assay: TLR multiplex sensor, EIS film resistance before/after exposure (Example 5), TLR3 sensor; conditions: exposure 20 minutes
T1 sequence (Q99MB1 26-905): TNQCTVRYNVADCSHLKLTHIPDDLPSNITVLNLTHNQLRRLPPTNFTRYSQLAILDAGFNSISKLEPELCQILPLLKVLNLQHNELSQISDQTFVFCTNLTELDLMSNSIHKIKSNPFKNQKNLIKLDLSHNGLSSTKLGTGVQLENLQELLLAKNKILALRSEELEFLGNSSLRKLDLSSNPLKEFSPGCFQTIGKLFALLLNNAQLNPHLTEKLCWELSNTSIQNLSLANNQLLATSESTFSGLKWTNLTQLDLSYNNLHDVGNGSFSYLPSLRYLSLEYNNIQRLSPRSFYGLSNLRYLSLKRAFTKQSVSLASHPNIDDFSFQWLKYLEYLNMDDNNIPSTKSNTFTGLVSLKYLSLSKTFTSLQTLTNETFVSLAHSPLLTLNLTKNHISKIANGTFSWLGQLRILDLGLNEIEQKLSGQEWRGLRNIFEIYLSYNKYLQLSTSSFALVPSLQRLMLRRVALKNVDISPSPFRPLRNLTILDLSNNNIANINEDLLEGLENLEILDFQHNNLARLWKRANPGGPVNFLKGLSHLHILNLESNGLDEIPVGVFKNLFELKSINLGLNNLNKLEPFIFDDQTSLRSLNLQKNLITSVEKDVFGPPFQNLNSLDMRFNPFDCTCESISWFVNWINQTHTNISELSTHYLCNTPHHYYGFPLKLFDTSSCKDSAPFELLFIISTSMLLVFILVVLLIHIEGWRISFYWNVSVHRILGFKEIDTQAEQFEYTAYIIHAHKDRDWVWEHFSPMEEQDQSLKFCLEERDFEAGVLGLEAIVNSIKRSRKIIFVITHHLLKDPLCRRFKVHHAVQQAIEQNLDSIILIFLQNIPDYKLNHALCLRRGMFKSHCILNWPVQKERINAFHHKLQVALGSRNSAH
Method: (§1) For each multiplex TLR sensor, 5 separate gold electrodes were used for binding TLR 1 to 5. The 5 modified electrodes/sensors were exposed to the analyte solution and evaluated one by one using potentiostats and electrochemical cells.
(§2) The preparation of each TLR biosensor was evaluated using EIS. It is understood that cyclic voltammetry as well as electrochemical impedance microscopy can also be used for monitoring the modification. […] Ethanolamine was then applied to deactivate unreacted LPA. Due to dissociation of unspecific absorbed TLR, the Rct dropped slightly. Experimental curves were evaluated using a model to obtain the Rct values, which can be seen at FIG. 9. Measurements from at least triplicated samples prepared were used to obtain statistic information.
(§3) The TLR1 sensor was exposed to an E. coli K12 whole-cell buffer solution for 20 minutes. The sensor was then removed, washed thoroughly and characterized in the electrochemical cell measuring the Rct again. The difference in Rct before and after exposure is the response triggered by the target. The same protocol was carried out for all remaining TLRs (TLRs 2-5) to obtain one set of pattern for E. coli K12 (FIGS. 10b to 10e). Multiple sets were investigated for statistical relevance. […]

rmTLR4/MD-2 = target: T2, rmTLR4/MD-2 (Mus musculus, UniProt Q9JHF9+Q9QUK6); assay: Selectivity test, TLR4/MD-2 sensor, EIS; conditions: 10 μM
T2 construct: purchased
T2 sequence (Q9QUK6 26-638 limits assumed): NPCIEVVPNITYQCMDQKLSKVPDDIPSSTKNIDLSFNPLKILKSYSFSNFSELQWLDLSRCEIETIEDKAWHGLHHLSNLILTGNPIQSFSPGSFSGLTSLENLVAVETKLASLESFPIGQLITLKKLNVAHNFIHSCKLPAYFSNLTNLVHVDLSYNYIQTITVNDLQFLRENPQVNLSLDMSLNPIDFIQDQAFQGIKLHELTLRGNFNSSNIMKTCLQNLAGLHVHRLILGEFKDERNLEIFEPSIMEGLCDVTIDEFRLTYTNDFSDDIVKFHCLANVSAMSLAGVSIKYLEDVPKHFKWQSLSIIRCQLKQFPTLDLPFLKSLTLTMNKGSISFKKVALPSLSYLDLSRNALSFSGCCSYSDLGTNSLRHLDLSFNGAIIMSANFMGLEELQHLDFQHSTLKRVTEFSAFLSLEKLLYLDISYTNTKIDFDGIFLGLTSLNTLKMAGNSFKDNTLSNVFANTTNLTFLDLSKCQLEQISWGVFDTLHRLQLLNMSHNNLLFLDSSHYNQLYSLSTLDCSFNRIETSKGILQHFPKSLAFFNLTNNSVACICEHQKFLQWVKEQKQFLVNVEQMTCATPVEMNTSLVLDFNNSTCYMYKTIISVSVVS
T2 sequence (Q9JHF9 19-160): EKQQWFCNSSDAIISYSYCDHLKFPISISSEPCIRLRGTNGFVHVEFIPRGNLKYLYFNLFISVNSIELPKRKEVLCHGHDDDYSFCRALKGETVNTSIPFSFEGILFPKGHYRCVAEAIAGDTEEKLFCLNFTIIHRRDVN

TLR4 = assay: TLR multiplex sensor, EIS film resistance before/after exposure (Example 5), TLR4 sensor; conditions: exposure 20 minutes
Method: as §1, §2, §3

With Pam3CSK4 as the substance, how does the “delta Rct %” value (TLR3) read?
Its value is “limited responses”.

And the “electrochemical response (selectivity test)” value (rmTLR4/MD-2)?
The value was “slight signal variations”.

What about the “delta Rct %” value (TLR4) of the same substance?
The value was “limited responses”.
